Assay results reported in ChEMBL document CHEMBL3885861, “Open TG-GATES”.

Species on record: Rattus norvegicus
Assay: Open TG-GATES - Regimen: Single
Type: toxicity, organism-based, Sprague-Dawley
Design: regimen Single, gender Male, age 6 weeks
Settings: in vivo, po, route gavage; for APTT / Bas / Eos / Fbg / Hb / Ht / Lym / MCH / MCHC / MCV / Mono / Neu / PT / Plat / RBC / WBC: tissue Blood; for KIDNEY_L / KIDNEY_R / KIDNEY_TOTAL: tissue Kidney; for LIVER: tissue Liver; for ALT / AST / CRE / Cl / DBIL / GLC / IP / LDH / Na / RALB / TBIL / TC / TG / TP / gamma-GTP / BUN: tissue Plasma
[1] = 0 mg/kg, 3 h, dose level Control
[2] = 0 mg/kg, 6 h, dose level Control
[3] = 0 mg/kg, 9 h, dose level Control
[4] = 0 mg/kg, 24 h, dose level Control

CC/C(=C(\c1ccccc1)c1ccc(OCCN(C)C)cc1)c1ccccc1 [TAMOXIFEN]
TERMINAL_BW [1]: 194.3 g
APTT [1]: 16.9 s
Bas [1]: 0%
Eos [1]: 0.8%
Fbg [1]: 248.6 mg/dL
Hb [1]: 13 g/dL
Ht [1]: 39.1%
Lym [1]: 76%
MCH [1]: 21.6 pg
MCHC [1]: 33.2%
MCV [1]: 65.1 fL
Mono [1]: 3.6%
Neu [1]: 19.2%
PT [1]: 12.2 s
Plat [1]: 123.1 x10_4/uL
RBC [1]: 601.8 x10_4/ul
WBC [1]: 87.4 x10_2/uL
KIDNEY_L [1]: 0.9 g
KIDNEY_R [1]: 0.8 g
KIDNEY_TOTAL [1]: 1.7 g
LIVER [1]: 8.3 g
ALT [1]: 47.6 IU/L
AST [1]: 77.6 IU/L
CRE [1]: 0.2 mg/dL
Cl [1]: 106.8 meq/L
DBIL [1]: 0.02 mg/dL
GLC [1]: 173.6 mg/dL
IP [1]: 10.2 mg/dL
LDH [1]: 69.6 IU/L
Na [1]: 140.8 meq/L
RALB [1]: 2.6 g/dL
TBIL [1]: 0.042 mg/dL
TC [1]: 86.4 mg/dL
TG [1]: 94.6 mg/dL
TP [1]: 5.6 g/dL
gamma-GTP [1]: 1.4 IU/L
TERMINAL_BW [2]: 192.7 g
APTT [2]: 16.1 s
Bas [2]: 0%
Eos [2]: 1%
Fbg [2]: 261.5 mg/dL
Hb [2]: 13.2 g/dL
Ht [2]: 39.6%
Lym [2]: 69.8%
MCH [2]: 21.8 pg
MCHC [2]: 33.4%
MCV [2]: 65.3 fL
Mono [2]: 3.2%
Neu [2]: 25.8%
PT [2]: 12.1 s
Plat [2]: 118.7 x10_4/uL
RBC [2]: 607 x10_4/ul
WBC [2]: 64.1 x10_2/uL
KIDNEY_L [2]: 0.8 g
KIDNEY_R [2]: 0.8 g
KIDNEY_TOTAL [2]: 1.7 g
LIVER [2]: 7.8 g
ALT [2]: 37.8 IU/L
AST [2]: 73 IU/L
BUN [2]: 9.8 mg/dL
CRE [2]: 0.2 mg/dL
Cl [2]: 110.2 meq/L
DBIL [2]: 0.015 mg/dL
GLC [2]: 171.2 mg/dL
IP [2]: 10 mg/dL
LDH [2]: 52.2 IU/L
Na [2]: 142.2 meq/L
RALB [2]: 2.6 g/dL
TBIL [2]: 0.0425 mg/dL
TC [2]: 86.5 mg/dL
TG [2]: 59 mg/dL
TP [2]: 5.4 g/dL
gamma-GTP [2]: 1 IU/L
TERMINAL_BW [3]: 194.3 g
APTT [3]: 16.5 s
Bas [3]: 0%
Eos [3]: 1%
Fbg [3]: 259.6 mg/dL
Hb [3]: 12.8 g/dL
Ht [3]: 38.4%
Lym [3]: 75.2%
MCHC [3]: 33.4%
MCV [3]: 64 fL
Mono [3]: 3%
PT [3]: 12.2 s
Plat [3]: 111.1 x10_4/uL
RBC [3]: 599.4 x10_4/ul
WBC [3]: 73.7 x10_2/uL
KIDNEY_L [3]: 0.8 g
KIDNEY_R [3]: 0.8 g
KIDNEY_TOTAL [3]: 1.6 g
LIVER [3]: 7.1 g
ALT [3]: 42.4 IU/L
AST [3]: 71.8 IU/L
BUN [3]: 10.2 mg/dL
CRE [3]: 0.2 mg/dL
Cl [3]: 107.2 meq/L
DBIL [3]: 0.012 mg/dL
GLC [3]: 184.6 mg/dL
LDH [3]: 50 IU/L
Na [3]: 142.8 meq/L
RALB [3]: 2.5 g/dL
TBIL [3]: 0.05 mg/dL
TC [3]: 84.6 mg/dL
TG [3]: 37.4 mg/dL
TP [3]: 5.3 g/dL
gamma-GTP [3]: 1.6 IU/L
TERMINAL_BW [4]: 200.5 g
APTT [4]: 15.5 s
Bas [4]: 0%
Eos [4]: 1%
Fbg [4]: 258.4 mg/dL
Hb [4]: 13 g/dL
Ht [4]: 38.9%
Lym [4]: 70.6%
MCH [4]: 21.5 pg
MCHC [4]: 33.5%
MCV [4]: 64.2 fL
Mono [4]: 4%
Neu [4]: 24%
PT [4]: 12.3 s
Plat [4]: 116.6 x10_4/uL
RBC [4]: 605.8 x10_4/ul
WBC [4]: 89.9 x10_2/uL
KIDNEY_L [4]: 0.9 g
KIDNEY_R [4]: 0.9 g
KIDNEY_TOTAL [4]: 1.8 g
LIVER [4]: 9.1 g
ALT [4]: 51.8 IU/L
AST [4]: 76.2 IU/L
BUN [4]: 14.6 mg/dL
CRE [4]: 0.2 mg/dL
Cl [4]: 107.2 meq/L
DBIL [4]: 0.012 mg/dL
GLC [4]: 183.8 mg/dL
IP [4]: 7.8 mg/dL
LDH [4]: 69 IU/L
Na [4]: 142.4 meq/L
RALB [4]: 2.6 g/dL
TBIL [4]: 0.034 mg/dL
TC [4]: 93.2 mg/dL
TG [4]: 83 mg/dL
TP [4]: 5.5 g/dL
gamma-GTP [4]: 1 IU/L
TERMINAL_BW (6 mg/kg, 3 h, dose level Low): 191.8 g
